From ChEMBL document CHEMBL4368865, “Synthesis, characterization and cytotoxic activity evaluation of ginsengdiol oxidation and nitrogen hybrid derivatives” (Medchemcomm, 2018)

Tests used:
U-87 MG = test: Cytotoxicity against human U87 cells assessed as inhibition of cell proliferation after 48 hrs by MTT assay; type: functional, cell-based, U-87MG ATCC
MCF7 = test: cells; type: functional, cell-based; details: Homo sapiens, MCF7, 48 h
Description: Cytotoxicity against human MCF7 cells assessed as inhibition of cell proliferation after 48 hrs by MTT assay

[1] = Cytotoxicity against human 8901 cells assessed as inhibition of cell proliferation after 48 hrs by MTT assay; type: functional, cell-based
A549 = test: Cytotoxicity against human A549 cells assessed as inhibition of cell proliferation after 48 hrs by MTT assay; type: functional, cell-based; details: A549, 48 h
HeLa [2] = test: Cytotoxicity against human HeLa cells assessed as inhibition of cell proliferation after 48 hrs by MTT assay; type: functional, cell-based
[3] = Cytotoxicity against human IOSE-144 cells assessed as inhibition of cell proliferation after 48 hrs by MTT assay; type: cell-based; details: IOSE-144, 48 h
HeLa [4] = test: Potency index, ratio of 5-fluorouracil IC50 to test compound IC50 for human HeLa cells; type: functional

Compound | IC50 (U-87 MG) [µM] | IC50 (MCF7) [µM] | IC50 [1] [µM] | IC50 (A549) [µM] | IC50 (HeLa [2]) [µM] | IC50 [3] [µM] | Ratio IC50 (HeLa [4])
CC1(C)CCC[C@](C)([C@H]2CC[C@]3(C)[C@@H]2[C@H](O)C[C@@H]2[C@@]4(C)Cc5nccnc5C(C)(C)[C@@H]4CC[C@]23C)O1 | > 100 | > 100 | > 100 | > 100 | > 100 | > 100 | 
CC1(C)CCC[C@](C)([C@H]2CC[C@]3(C)[C@@H]2[C@H](O)C[C@@H]2[C@@](C)(CC(=O)O)[C@H](C(C)(C)C=O)CC[C@]23C)O1 | > 100 | > 100 | > 100 | > 100 | > 100 | > 100 | 
Cc1ncc2c(n1)C(C)(C)[C@@H]1CC[C@]3(C)[C@H](C[C@@H](O)[C@@H]4[C@@H]([C@@]5(C)CCCC(C)(C)O5)CC[C@]43C)[C@@]1(C)C2 | 86.3 | 83 | > 100 | > 100 | > 100 | > 100 | 
COC(C)(C)CCC[C@@](C)(O)[C@H]1CC[C@]2(C)[C@@H]1[C@H](O)C[C@@H]1[C@@]3(C)CCC(=O)C(C)(C)[C@@H]3CC[C@]12C | > 100 | 50.3 | 78.6 | 39.9 | > 100 | > 100 | 
CC(C)(O)CCC[C@@](C)(O)[C@H]1CC[C@]2(C)[C@@H]1[C@H](O)C[C@@H]1[C@@]3(C)CCC(=O)C(C)(C)[C@@H]3CC[C@]12C | > 100 | 66.6 | > 100 | 25.7 | > 100 | > 100 | 
CC1(C)CCC[C@](C)([C@H]2CC[C@]3(C)[C@@H]2[C@H](O)C[C@@H]2[C@@]4(C)CC(C=O)C(=O)C(C)(C)[C@@H]4CC[C@]23C)O1 (some centres undefined) | 30.6 | 28.3 | 30.1 | 18.5 | 31.9 | > 100 | 
CC1(C)CCC[C@](C)([C@H]2CC[C@]3(C)[C@@H]2[C@H](O)C[C@@H]2[C@@]4(C)Cc5cn[nH]c5C(C)(C)[C@@H]4CC[C@]23C)O1 | 26.2 | 18.9 | 13.5 | 9.62 | 11.7 | > 100 | 2.5
CC1(C)CCC[C@](C)([C@H]2CC[C@]3(C)[C@@H]2[C@H](O)C[C@@H]2[C@@]4(C)CC(C#N)=C(O)C(C)(C)[C@@H]4CC[C@]23C)O1 | 41.6 | 29.7 | 25.7 | 12.9 | 12.7 | > 100 | 
CC(C)(O)CCC[C@@](C)(O)[C@H]1CC[C@]2(C)[C@@H]1C(=O)C[C@@H]1[C@@]3(C)CC[C@H](O)C(C)(C)[C@@H]3CC[C@]12C | > 100 | > 100 | 66.5 | 50.6 | > 100 | > 100 | 
CC1(C)CCC[C@](C)([C@H]2CC[C@]3(C)[C@@H]2[C@H](O)C[C@@H]2[C@@]4(C)Cc5cnc(N)nc5C(C)(C)[C@@H]4CC[C@]23C)O1 | 82.6 | 27.9 | 45.7 | 26.9 | 69.4 | > 100 | 
CC1(C)CCC[C@](C)([C@H]2CC[C@]3(C)[C@@H]2[C@H](O)C[C@@H]2[C@@]4(C)CC/C(=N\O)C(C)(C)[C@@H]4CC[C@]23C)O1 | > 100 | > 100 | > 100 | > 100 | > 100 | > 100 | 
CC1(C)CCC[C@](C)([C@H]2CC[C@]3(C)[C@@H]2[C@H](O)C[C@@H]2[C@@]4(C)C=C(O)C(=O)C(C)(C)[C@@H]4CC[C@]23C)O1 | 20.2 | 23.6 | 50.1 | 40 | 25 | > 100 | 
CC1(C)CCC[C@](C)([C@H]2CC[C@]3(C)[C@@H]2[C@H](O)C[C@@H]2[C@@]4(C)CCC(=O)C(C)(C)[C@@H]4CC[C@]23C)O1 | 90 | 78.1 | > 100 | > 100 | 66.4 | > 100 | 
O=c1[nH]cc(F)c(=O)[nH]1 [FLUOROURACIL] | 22 |  | 33.3 |  | 28.2 | 34.8 | 
CC1(C)CCC[C@](C)([C@H]2CC[C@]3(C)[C@@H]2[C@H](O)C[C@@H]2[C@@]4(C)CC[C@H](O)C(C)(C)[C@@H]4CC[C@]23C)O1 [PANAXADIOL] | > 100 | 52.6 | > 100 | 44.6 | > 100 | > 100 | 
